Assay results: article PMC8880564, “Design, Synthesis, and Biological Evaluation of a Novel VEGFR-2 Inhibitor Based on a 1,2,5-Oxadiazole-2-Oxide Scaffold with MAPK Signaling Pathway Inhibition” (Pharmaceuticals, 2022)

What was measured:
Experiment in all cases: NCI-60 one-dose SRB screening
Type in all cases: cell-based
[1] = system: ACHN; settings: Homo sapiens, Renal Cancer, 10 µM one dose, 48 h, read-out: growth percentage
Experimental: (§1) The structures of the synthesized compounds 6a–h, 12a–c, 11, 13a–c, and 14a–c were submitted to the National Cancer Institute’s Developmental Therapeutics Program (NCI-DTP), and all of them were selected for preliminary in vitro anticancer activity screening against NCI-59 human cancer cell lines at a concentration of 10 µM, using the sulforhodamine B (SRB) assay to determine the growth percentage and cell viability.
(§2) The in vitro NCI-60 cell line screening assay was conducted at the National Cancer Institute (NCI), Bethesda, USA against 59 cancer cell lines representing 9 types of cancers, as reported earlier. Briefly, the human cancer cell lines were grown in RPMI 1640 medium containing 5% fetal bovine serum and 2 mM L-glutamine and inoculated into 96-well microtiter plates in 100 μL (5000 to 40,000 cells/well). Then, the plates were incubated at 37 °C, 5% CO2, 95% air, and 100% relative humidity for 24 h. After that, two plates of each cell line were fixed in situ with TCA, to represent cell population at time zero (Tz). The tested compounds were dissolved in DMSO at 400-fold and added so that the final concentration became 10 μM. The plates were then incubated for an additional 48 h followed by the addition of cold TCA to terminate the assay in case of adherent cells. Then, the cells were fixed in situ by cold 50% (w/v) TCA (50 μL; final concentration, 10% TCA) and incubated for 1 h at 4 °C. After discarding the supernatant, the plates were washed 5 times with tap water and air dried. Sulforhodamine B (SRB) solution (100 μL) at 0.4% (w/v) in 1% HOAc was added to each well, and plates were incubated for 10 min. at rt. Then, washing with 1% acetic acid was conducted 5 times to remove the unbound dye followed by air drying. After that, 10 mM trizma base was added to solubilize the bound stain, and the absorbance was read on an automated plate reader at a wavelength of 515 nm. On the other hand, the methodology for suspension cells was the same except that 50 μL of 80% TCA (final concentration, 16% TCA) was gently added to terminate the assay by fixing settled cells at the bottom of the wells. Percentage growth inhibition (GI%) was calculated as follows:
(§3) Growth percentage=Ti (test growth in the presence of compound at 10 µM )−Tz (time zero)/C (control growth)−Tz (time zero)×100 for Ti ≥ Tz;
(§4) Growth percentage=Ti (test growth in the presence of compound at 10 µM )−Tz (time zero)/Tz (time zero)×100 for Ti < Tz.
(§5) where values of 100, 40, 0, −40, and −100 mean no GI, 60% GI, no net G, 40% lethality, and all cells are dead, respectively.

[2] = system: CAKI-1; settings: Homo sapiens, CAKI-1, Renal Cancer, 10 µM one dose, 48 h, read-out: growth percentage
Experimental: as §1, §2, §3, §4, §5

[3] = system: CCRF-CEM; settings: Homo sapiens, Leukemia, 10 µM one dose, 48 h, read-out: growth percentage
Experimental: as §1, §2, §3, §4, §5

[4] = system: COLO 205; settings: Homo sapiens, COLO 205, Colon Cancer, 10 µM one dose, 48 h, read-out: growth percentage
Experimental: as §1, §2, §3, §4, §5

[5] = system: HCT-116; settings: Homo sapiens, HCT-116, Colon Cancer, 10 µM one dose, 48 h, read-out: growth percentage
Experimental: as §1, §2, §3, §4, §5

[6] = system: HL-60(TB); settings: Homo sapiens, Leukemia, 10 µM one dose, 48 h, read-out: growth percentage
Experimental: as §1, §2, §3, §4, §5

[7] = system: HOP-62; settings: Homo sapiens, HOP-62, Non-Small Cell Lung Cancer, 10 µM one dose, 48 h, read-out: growth percentage
Experimental: as §1, §2, §3, §4, §5

[8] = system: HT29; settings: Homo sapiens, HT-29, HT29, Colon Cancer, 10 µM one dose, 48 h, read-out: growth percentage
Experimental: as §1, §2, §3, §4, §5

[9] = system: K-562; settings: Homo sapiens, K562, K-562, Leukemia, 10 µM one dose, 48 h, read-out: growth percentage
Experimental: as §1, §2, §3, §4, §5

[10] = system: MALME-3M; settings: Homo sapiens, Melanoma, 10 µM one dose, 48 h, read-out: growth percentage
Experimental: as §1, §2, §3, §4, §5

[11] = system: MDA-MB-231/ATCC; settings: Homo sapiens, Breast Cancer, 10 µM one dose, 48 h, read-out: growth percentage
Experimental: as §1, §2, §3, §4, §5

[12] = system: NCI-H226; settings: Homo sapiens, NCI-H226, Non-Small Cell Lung Cancer, 10 µM one dose, 48 h, read-out: growth percentage
Experimental: as §1, §2, §3, §4, §5

[13] = system: NCI-H322M; settings: Homo sapiens, Non-Small Cell Lung Cancer, 10 µM one dose, 48 h, read-out: growth percentage
Experimental: as §1, §2, §3, §4, §5

[14] = system: NCI-H460; settings: Homo sapiens, NCI-H460, Non-Small Cell Lung Cancer, 10 µM one dose, 48 h, read-out: growth percentage
Experimental: as §1, §2, §3, §4, §5

[15] = system: OVCAR-3; settings: Homo sapiens, OVCAR-3, Ovarian Cancer, 10 µM one dose, 48 h, read-out: growth percentage
Experimental: as §1, §2, §3, §4, §5

[16] = system: OVCAR-5; settings: Homo sapiens, OVCAR-5, Ovarian Cancer, 10 µM one dose, 48 h, read-out: growth percentage
Experimental: as §1, §2, §3, §4, §5

[17] = system: SF-295; settings: Homo sapiens, SF-295, CNS Cancer, 10 µM one dose, 48 h, read-out: growth percentage
Experimental: as §1, §2, §3, §4, §5

[18] = system: SK-OV-3; settings: Homo sapiens, SK-OV-3, Ovarian Cancer, 10 µM one dose, 48 h, read-out: growth percentage
Experimental: as §1, §2, §3, §4, §5

[19] = system: SN12C; settings: Homo sapiens, Renal Cancer, 10 µM one dose, 48 h, read-out: growth percentage
Experimental: as §1, §2, §3, §4, §5

[20] = system: SW-620; settings: Homo sapiens, SW-620, Colon Cancer, 10 µM one dose, 48 h, read-out: growth percentage
Experimental: as §1, §2, §3, §4, §5

[21] = system: U251; settings: Homo sapiens, U-251, U251, CNS Cancer, 10 µM one dose, 48 h, read-out: growth percentage
Experimental: as §1, §2, §3, §4, §5

[22] = system: UACC-257; settings: Homo sapiens, UACC-257, Melanoma, 10 µM one dose, 48 h, read-out: growth percentage
Experimental: as §1, §2, §3, §4, §5

SMILES | activity at 10 µM [1] [%] | activity at 10 µM [2] [%] | activity at 10 µM [3] [%] | activity at 10 µM [4] [%] | activity at 10 µM [5] [%] | activity at 10 µM [6] [%] | activity at 10 µM [7] [%] | activity at 10 µM [8] [%] | activity at 10 µM [9] [%] | activity at 10 µM [10] [%] | activity at 10 µM [11] [%] | activity at 10 µM [12] [%] | activity at 10 µM [13] [%] | activity at 10 µM [14] [%] | activity at 10 µM [15] [%] | activity at 10 µM [16] [%] | activity at 10 µM [17] [%] | activity at 10 µM [18] [%] | activity at 10 µM [19] [%] | activity at 10 µM [20] [%] | also measured
[O-][n+]1onc(-c2ccccc2)c1COc1ccc(Nc2ncnc3c2cnn3-c2ccc(Br)cc2)cc1 [6e, 3-((4-((1-(4-bromophenyl)-1H-pyrazolo[3,4-d]pyrimidin-4-yl)amino)phenoxy)methyl)-4-phenyl-1,2,5-oxadiazole 2-oxide] | 103 | 82.1 | 108 | 105 | 92.7 | 96.1 | 105 | 94.5 | 98.5 | 95.3 | 108 | 104 | 97.9 | 111 | 117 | 98.8 | 101 | 104 | 96.4 | 115 | activity at 10 µM [21]: 102%; activity at 10 µM [22]: 104%
Cc1nc(Nc2ccc(OCc3c(-c4ccccc4)no[n+]3[O-])cc2)c2cnn(-c3ccc(Br)cc3)c2n1 [6f, 3-((4-((1-(4-bromophenyl)-6-methyl-1H-pyrazolo[3,4-d]pyrimidin-4-yl)amino)phenoxy)methyl)-4-phenyl-1,2,5-oxadiazole 2-oxide] | 101 | 81.9 | 104 | 119 | 97.5 | 100 | 110 | 97.3 | 91.1 | 106 | 106 | 108 | 90.8 | 103 | 114 | 99.3 | 102 | 113 | 94.8 | 109 | activity at 10 µM [21]: 99%; activity at 10 µM [22]: 101%
Cc1nn(-c2ccc(Br)cc2)c2ncnc(Nc3ccc(OCc4c(-c5ccccc5)no[n+]4[O-])cc3)c12 [6g, 3-((4-((1-(4-bromophenyl)-3-methyl-1H-pyrazolo[3,4-d]pyrimidin-4-yl)amino)phenoxy)methyl)-4-phenyl-1,2,5-oxadiazole 2-oxide] | 88 | 84.9 | 98.1 | 117 | 90.7 | 115 | 94 | 101 | 103 | 91.6 | 84.9 | 89.9 | 94.5 | 100 | 112 | 99.3 | 87.6 | 96.2 | 91.3 | 107 | activity at 10 µM [21]: 102%; activity at 10 µM [22]: 97.1%
Cc1nc(Nc2ccc(OCc3c(-c4ccccc4)no[n+]3[O-])cc2)c2c(C)nn(-c3ccc(Br)cc3)c2n1 [6h, 3-((4-((1-(4-bromophenyl)-3,6-dimethyl-1H-pyrazolo[3,4-d]pyrimidin-4-yl)amino)phenoxy)methyl)-4-phenyl-1,2,5-oxadiazole 2-oxide] | 98.7 | 83.8 | 103 | 94.4 | 71.5 | 70.8 | 104 | 90 | 83.6 | 96 | 100 | 109 | 94.4 | 100 | 104 | 102 | 105 | 109 | 96.4 | 101 | activity at 10 µM [21]: 96.4%; activity at 10 µM [22]: 99.8%
Cc1nn(-c2ccccc2)c2nc(C(F)(F)F)nc(Nc3ccc(NCc4c(-c5ccccc5)no[n+]4[O-])cc3)c12 [12a, 3-(((4-((3-methyl-1-phenyl-6-(trifluoromethyl)-1H-pyrazolo[3,4-d]pyrimidin-4-yl)amino)phenyl)amino)methyl)-4-phenyl-1,2,5-oxadiazole 2-oxide] | 77.7 | 53 | 59.2 | 73.6 | 41.1 | 77.2 | 93.1 | 61.5 | 39.8 | 91 | 84.4 | 85.6 | 77.6 | 53 | 105 | 93.7 | 76.6 | 96.9 | 77.7 | 86 | activity at 10 µM [21]: 69.9%; activity at 10 µM [22]: 103%
[O-][n+]1onc(-c2ccccc2)c1CNc1ccc(Nc2nc(C(F)(F)F)nc3c2cnn3-c2ccc(Br)cc2)cc1 [12b, 3-(((4-((1-(4-bromophenyl)-6-(trifluoromethyl)-1H-pyrazolo[3,4-d]pyrimidin-4-yl)amino)phenyl)amino)methyl)-4-phenyl-1,2,5-oxadiazole 2-oxide] | 56.9 | 31.1 | 48.5 | 74.6 | 46.7 | 79.8 | 77.9 | 43.9 | 22.8 | 93.5 | 69.7 | 77 | 74.1 | 35.6 | 92 | 77.2 | 54.5 | 88.8 | 58 | 84.8 | activity at 10 µM [21]: 73.2%; activity at 10 µM [22]: 102%
